# Laboratory results taken from the supplement of paper PMC10883282.
# Legend:
# Assay in all cases: standardised AUC of viability dose-response curve (72 h) (fraction (0-1)); higher = less growth inhibition (more resistant)
# HT1080 = system: HT1080
# How it was run: (§1)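 Viability of sarcoma cell lines was read with ATPLite after 72 h of triplicate treatment in 384-well plates with 2.5 µl of compound from a compound-plate series of 10 mM to 0.0002 mM. Viability was scaled 1 (full) to 0 (none) and fitted with a four-parameter log-logistic model for each drug and cell line. The reported standardised area under the dose-response curve in log-dose space comes from a modified drexplorer computeAUC, where 1 is no response and 0 is full response.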
# SW872 = system: SW872
# How it was run: as §1
# G401 = system: G401
# How it was run: as §1
# SW684 = system: SW684
# How it was run: as §1
# RD-ES = system: RD-ES
# How it was run: as §1
# SK-LMS-1 = system: SK-LMS-1
# How it was run: as §1
# SW982 = system: SW982
# How it was run: as §1
# KHOS-NP = system: KHOS-NP
# How it was run: as §1
# VA-ES-BJ = system: VA-ES-BJ
# How it was run: as §1
# A204 = system: A204
# How it was run: as §1
# HS729 = system: HS729
# How it was run: as §1
# MES-SA = system: MES-SA
# How it was run: as §1
# SW1353 = system: SW1353
# How it was run: as §1
# RD = system: RD
# How it was run: as §1
# SYO-1 = system: SYO-1
# How it was run: as §1
# KHOS-240S = system: KHOS-240S
# How it was run: as §1
# SK-ES-1 = system: SK-ES-1
# How it was run: as §1
Structure (SMILES),standardised AUC (HT1080),standardised AUC (SW872),standardised AUC (G401),standardised AUC (SW684),standardised AUC (RD-ES),standardised AUC (SK-LMS-1),standardised AUC (SW982),standardised AUC (KHOS-NP),standardised AUC (VA-ES-BJ),standardised AUC (A204),standardised AUC (HS729),standardised AUC (MES-SA),standardised AUC (SW1353),standardised AUC (RD),standardised AUC (SYO-1),standardised AUC (KHOS-240S),standardised AUC (SK-ES-1)
CN(C)C/C=C/C(=O)Nc1cc2c(Nc3ccc(F)c(Cl)c3)ncnc2cc1O[C@H]1CCOC1 [AFATINIB],0.926,0.819,0.838,0.85,0.823,0.837,0.759,0.939,0.825,0.733,0.849,0.807,0.729,0.801,0.795,0.846,0.745
COc1cc(Nc2ncc3c(n2)-c2ccc(Cl)cc2C(c2c(F)cccc2OC)=NC3)ccc1C(=O)O [ALISERTIB],0.873,0.895,0.811,0.902,0.656,0.865,0.734,0.95,0.808,0.876,0.889,0.678,0.933,0.801,0.732,0.835,0.558
CCS(=O)(=O)N1CC(CC#N)(n2cc(-c3ncnc4[nH]ccc34)cn2)C1 [BARICITINIB],0.989,0.992,0.995,0.99,1,0.985,0.99,0.986,0.997,0.962,0.977,0.972,0.987,1,0.985,0.981,1
COc1cc(N2CCC(N3CCN(C)CC3)CC2)ccc1Nc1ncc(Cl)c(Nc2ccccc2P(C)(C)=O)n1 [BRIGATINIB],0.907,0.778,0.816,0.904,0.7,0.883,0.649,0.889,0.763,0.833,0.728,0.908,0.77,0.694,0.681,0.766,0.713
Cc1cc2c(F)c(Oc3ncnn4cc(OC[C@@H](C)OC(=O)[C@H](C)N)c(C)c34)ccc2[nH]1 [BRIVANIB ALANINATE],0.979,1,0.991,0.989,0.996,0.941,1,0.966,0.994,0.967,0.977,0.964,0.995,0.987,0.943,0.974,0.986
O=C(c1ccc(F)c(F)c1Nc1ccc(I)cc1F)N1CC(O)([C@@H]2CCCCN2)C1 [COBIMETINIB],0.661,0.633,0.732,0.748,0.953,0.628,0.867,0.657,0.756,0.801,0.899,0.909,0.844,0.653,0.878,0.786,0.931
Cc1c2oc3c(C)ccc(C(=O)N[C@@H]4C(=O)N[C@H](C(C)C)C(=O)N5CCC[C@H]5C(=O)N(C)CC(=O)N(C)[C@@H](C(C)C)C(=O)O[C@@H]4C)c3nc-2c(C(=O)N[C@@H]2C(=O)N[C@H](C(C)C)C(=O)N3CCC[C@H]3C(=O)N(C)CC(=O)N(C)[C@@H](C(C)C)C(=O)O[C@@H]2C)c(N)c1=O [DACTINOMYCIN],0.464,0.56,0.348,0.778,0.418,0.566,0.396,0.451,0.453,0.365,0.504,0.258,0.492,0.432,0.444,0.408,0.272
C[C@@H]1CN(C(=O)c2ccc(NC(=O)c3cc(O[C@H](C)c4c(Cl)ccc(F)c4Cl)c(N)nn3)cc2)C[C@H](C)N1 [ENSARTINIB],0.929,0.891,0.875,0.936,0.805,0.845,0.808,0.975,0.853,0.937,0.878,0.832,0.933,0.852,0.816,0.895,0.79
C=CC(=O)N1CCC(CNc2ncnc(N)c2-c2ccc(Oc3ccccc3)cc2)CC1 [EVOBRUTINIB],0.984,0.987,0.979,0.998,0.989,0.981,0.994,0.995,0.992,0.943,0.929,0.98,0.947,0.996,0.975,0.981,0.945
CNC(=O)c1c(C)oc2cc(Oc3ncnc4cc(OC)c(OC)cc34)ccc12 [FRUQUINTINIB],0.968,0.925,0.934,0.979,0.984,0.96,0.986,0.975,0.964,0.787,0.856,0.97,0.932,0.993,0.79,0.937,0.968
